For orientation: IC50 means the point on the concentration scale where inhibition reaches its midpoint.

Molecules are shown by their SMILES. Converted amounts (≈) assume the structure as drawn.

One test deals with AGS. Kind of test: Cytotoxicity against human AGS cells after 48 hrs by MTT assay. The format is functional, cell-based.
The next test deals with HCT-116. As to the kind of experiment: Cytotoxicity against human HCT116 cells after 48 hrs by MTT assay. It is filed as functional, cell-based. The conditions noted are these: HCT-116, 48 h.
The subject of the next test is HeLa. Kind of test: Cytotoxicity against human HeLa cells after 48 hrs by MTT assay. The format is functional, cell-based.
Test [1] is described as follows: Antioxidant activity assessed as ABTS radical scavenging activity after 30 mins by spectrophotometry. It is filed as functional.
A short description of test [2]: Antioxidant activity assessed as hydroxyl radical scavenging activity after 15 mins by spectrophotometry. The format is functional.
Test [3] can be described thus: Antioxidant activity assessed as superoxide anion radical scavenging activity after 90 seconds by formazan method. The format is functional.
In test [4] the test system is Radical scavenging activity. Kind of test: Antioxidant activity assessed as DPPH radical scavenging activity. The format is functional.

As to `Cc1nc2c3ccccc3ccc2c2nc3c(ccc4ccccc43)c(-c3ccccc3S)c12`, the 50% inhibitory concentration (IC50) in the test on AGS worked out at 4.07 µM; with HCT-116, 1.42 µM; with HeLa, 3.19 µM; in test [1], 89 µg/mL (≈ 197 µM); in test [2] it was 49.6 µg/mL (≈ 110 µM); in test [3], 158.3 µg/mL (≈ 350 µM). Also, in test [4], the IC50 was 10.2 µg/mL (≈ 22.5 µM).
Regarding `Cc1nc2c3ccccc3ccc2c2nc3c(ccc4ccccc43)c(-c3cccc([N+](=O)[O-])c3)c12`, the 50% inhibitory concentration (IC50) is 25.5 µM with AGS; 13.2 µM in the test with HCT-116; 50.7 µM with HeLa; 116.8 µg/mL (≈ 251 µM) in test [1]; 54.2 µg/mL (≈ 116 µM) in test [2]; 157.3 µg/mL (≈ 338 µM) in test [3]. The IC50 in test [4] is 33.3 µg/mL (≈ 71.5 µM).
`Cc1nc2c3ccccc3ccc2c2nc3c(ccc4ccccc43)c(-c3cc(O)nc4ccccc34)c12`: the IC50 with AGS is 15.8 µM; in the test with HCT-116 it was 4.63 µM; with HeLa, 4.88 µM; in test [1], 92.1 µg/mL (≈ 189 µM); in test [2] it was 44.8 µg/mL (≈ 91.9 µM); in test [3] it was 147.7 µg/mL (≈ 303 µM). Further, the 50% inhibitory concentration (IC50) in test [4] is 14.1 µg/mL (≈ 28.9 µM).
As to `Cc1nc2c3ccccc3ccc2c2nc3c(ccc4ccccc43)c(-c3ccccc3N)c12`, the IC50 in the test with AGS is 12.1 µM; with HCT-116, 4.76 µM; with HeLa it was 16.2 µM; in test [1], 95.4 µg/mL (≈ 219 µM); in test [2], 45.6 µg/mL (≈ 105 µM); in test [3], 124.6 µg/mL (≈ 286 µM). In addition, in test [4], the IC50 turned out to be 17.5 µg/mL (≈ 40.2 µM).
As to `Cc1nc2c3ccccc3ccc2c2nc3c(ccc4ccccc43)c(-c3ccccc3)c12`, the IC50 in the test with AGS was above 80 µM; in the test on HCT-116, above 80 µM; with HeLa, above 80 µM; in test [1] it was 164.3 µg/mL (≈ 391 µM); in test [2], 84.6 µg/mL (≈ 201 µM); in test [3], 188.1 µg/mL (≈ 447 µM). In test [4], the concentration for half-maximal inhibition (IC50) came out at 31.3 µg/mL (≈ 74.4 µM).
Regarding `Cc1nc2c3ccccc3ccc2c2nc3c(ccc4ccccc43)c(-c3ccc(O)cc3)c12`, the concentration for half-maximal inhibition (IC50) came out at 14.2 µM in the test with AGS; 3.19 µM in the test on HCT-116; 4.63 µM in the test with HeLa; 86.4 µg/mL (≈ 198 µM) in test [1]; 44.1 µg/mL (≈ 101 µM) in test [2]; 99 µg/mL (≈ 227 µM) in test [3]. In addition, in test [4], the half-maximal inhibitory concentration (IC50) came out at 10.4 µg/mL (≈ 23.8 µM).
Consider `Cc1nc2c3ccccc3ccc2c2nc3c(ccc4ccccc43)c(-c3cccc4ccccc34)c12`, for which the IC50 worked out at 12.1 µM with AGS; 20.8 µM in the test with HCT-116; 14.9 µM with HeLa; 110.5 µg/mL (≈ 235 µM) in test [1]; 64.3 µg/mL (≈ 137 µM) in test [2]; 179.3 µg/mL (≈ 381 µM) in test [3]. For the same compound, the 50% inhibitory concentration (IC50) in test [4] was determined as 26.1 µg/mL (≈ 55.5 µM).
With `Cc1cc(Nc2cccc3ccccc23)c2ccc3ccccc3c2n1`, the concentration for half-maximal inhibition (IC50) in the test with AGS was determined as 4.01 µM; in the test with HCT-116 it was 5.61 µM; with HeLa it was 3.45 µM; in test [1], 115.2 µg/mL (≈ 344 µM); in test [2] it was 62.3 µg/mL (≈ 186 µM); in test [3], 186.2 µg/mL (≈ 557 µM). Besides, in test [4], the IC50 stood at 18.2 µg/mL (≈ 54.4 µM).
As for `COc1ccc(-c2c3ccc4ccccc4c3nc3c2c(C)nc2c4ccccc4ccc32)cc1`, the half-inhibitory concentration (IC50) in the test with AGS is 66.4 µM; in the test on HCT-116 it was above 80 µM; in the test on HeLa, 45.9 µM; in test [1], 132.5 µg/mL (≈ 294 µM); in test [2], 82.3 µg/mL (≈ 183 µM); in test [3] it was 176.4 µg/mL (≈ 392 µM). The half-maximal inhibitory concentration (IC50) in test [4] was 27.5 µg/mL (≈ 61 µM).
For `Cc1nc2c3ccccc3ccc2c2nc3c(ccc4ccccc43)c(C)c12`, the IC50 in the test with AGS is above 80 µM; in the test on HCT-116 it was above 80 µM; in the test on HeLa, above 80 µM; in test [1], 128.5 µg/mL (≈ 358 µM); in test [2] it was 89.6 µg/mL (≈ 250 µM); in test [3], 194.5 µg/mL (≈ 543 µM). Further, the 50% inhibitory concentration (IC50) in test [4] was 46.6 µg/mL (≈ 130 µM).
For the compound `COc1cccc2c1C(=O)c1c(O)c3c(c(O)c1C2=O)C[C@@](O)(C(=O)CO)C[C@@H]3O[C@H]1C[C@H](N)[C@H](O)[C@H](C)O1` [DOXORUBICIN], the values for the 50% inhibitory concentration (IC50) in the test on AGS, in the test with HCT-116 and in the test with HeLa were 10.9 µM, 8.7 µM and 6.3 µM, respectively.
On to `Cc1ccc(-c2c3ccc4ccccc4c3nc3c2c(C)nc2c4ccccc4ccc32)cc1`, for which the IC50 with AGS was above 80 µM; in the test on HCT-116, 67 µM; in the test on HeLa it was 72.2 µM; in test [1], 123.3 µg/mL (≈ 284 µM); in test [2] it was 68.7 µg/mL (≈ 158 µM); in test [3], 191.5 µg/mL (≈ 441 µM). The IC50 in test [4] came out at 24.5 µg/mL (≈ 56.4 µM).
As to `Cc1nc2c3ccccc3ccc2c2nc3c(ccc4ccccc43)c(-c3nccnc3N)c12`, the IC50 with AGS is 2.26 µM; with HCT-116, 3.56 µM; in the test with HeLa, 1.21 µM; in test [1], 81.7 µg/mL (≈ 187 µM); in test [2], 47.8 µg/mL (≈ 109 µM); in test [3], 133.9 µg/mL (≈ 306 µM). In test [4], the IC50 was found to be 12 µg/mL (≈ 27.4 µM).
Regarding `Cc1nc2c3ccccc3ccc2c2nc3c(ccc4ccccc43)c(-c3cccnc3)c12`, the IC50 was found to be 3.96 µM in the test on AGS; 34.2 µM with HCT-116; 3.86 µM in the test with HeLa; 98.2 µg/mL (≈ 233 µM) in test [1]; 63.6 µg/mL (≈ 151 µM) in test [2]; 156.1 µg/mL (≈ 370 µM) in test [3]. For the same compound, the IC50 in test [4] turned out to be 16.9 µg/mL (≈ 40.1 µM).
For the compound `Cc1nc2c3ccccc3ccc2c2nc3c(ccc4ccccc43)c(-c3ccccc3Cl)c12`, the IC50 in the test with AGS is 52.5 µM; in the test on HCT-116, 48.2 µM; in the test on HeLa, above 80 µM; in test [1], 118.1 µg/mL (≈ 260 µM); in test [2] it was 74.6 µg/mL (≈ 164 µM); in test [3], 170 µg/mL (≈ 374 µM). Also, the IC50 in test [4] amounted to 43 µg/mL (≈ 94.5 µM).
In the case of `Cc1nc2c3ccccc3ccc2c2nc3c(ccc4ccccc43)c(-c3cc([N+](=O)[O-])ccc3N)c12`, the IC50 with AGS is 17.8 µM; with HCT-116, 6.01 µM; with HeLa, 5.77 µM; in test [1] it was 93.1 µg/mL (≈ 194 µM); in test [2], 43.3 µg/mL (≈ 90.1 µM); in test [3] it was 110.1 µg/mL (≈ 229 µM). Besides, the half-maximal inhibitory concentration (IC50) in test [4] was found to be 11.3 µg/mL (≈ 23.5 µM).
As to `COc1ccc(O)c(C(C)(C)C)c1.COc1ccc(O)cc1C(C)(C)C` [BUTYLATED HYDROXYANISOLE], the half-inhibitory concentration (IC50) in test [1] is 96.8 µg/mL; in test [2], 75.7 µg/mL; in test [3], 79.6 µg/mL; in test [4] it was 9.7 µg/mL.

For the origin of these results see ChEMBL document CHEMBL3132820, “Dinaphthonaphthyridines a class of novel molecules with potent antioxidant and anticancer activity” (Medchemcomm, 2013).
